In brackets after ≈: the same amount, converted by molar mass.
Assays:
Format in all cases: cell-based
[1] = system: Mycobacterium tuberculosis H37Rv; test: Microplate Alamar Blue assay (MABA) MIC, M. tuberculosis; conditions: read-out: MIC Mycobacterium tuberculosis H37Rv
Description: (§1) Minimal inhibitory concentrations (MICs) in Mycobacterium tuberculosis H37Rv and Mycobacterium avium ATCC 25291 were quantified using microplate Alamar Blue assays as described (MABA; [Collins, L. & Franzblau, S. (1997) Microplate Alamar Blue assay versus BACTEC 460 system for high-throughput screening of compounds against Mycobacterium tuberculosis and Mycobacterium avium. Antimicrob. Agents Chemother. 41, 1004-1009]).

[2] = system: Mycobacterium avium ATCC 25291; test: Microplate Alamar Blue assay (MABA) MIC, M. avium; conditions: ATCC25291, M. avium ATCC 25291
Description: as §1

[3] = system: Mycobacterium smegmatis ATCC 19420; test: Broth microdilution MIC, M. smegmatis; conditions: Mycolicibacterium smegmatis, ATCC19420, M. smegmatis ATCC 19420; read-out: MIC Mycobacterium smegmatis ATCC 19420
Description: MICs in Mycobacterium smegmatis ATCC 19420 and Mycobacterium smegmatis ATCC 19420 derivatives were quantified using broth microdilution assays as described [Clinical and Laboratory Standards Institute (CLSI/NCCLS) (2009) Methods for Dilution Antimicrobial Susceptibility Tests for Bacteria That Grow Aerobically; Approved Standard, Eighth Edition. CLIS Document M07-A8 (CLIS, Wayne Pa.)].

[4] = system: Vero E6 ATCC CRL1586 cells; test: Mammalian-cell cytotoxicity, minimal cytotoxic concentration (CellTiter96)
Method: Minimal cytotoxic concentrations (MCCs) against mammalian cells in culture were determined using Vero E6 ATCC CRL1586 cells and the CellTiter96 assay kit (Promega, Inc.). […]

Compound	MIC [1]	MIC [2]	MIC [3]	MCC mammalian cells Vero E6 ATCC CRL1586 [4]
O=C(NC(Cc1ccc(O)cc1)C(=O)Nc1cccc2cc[nH]c12)c1ccccc1 (stereo not drawn) [IX-40, N-(1-((1H-indol-7-yl)amino)-3-(4-hydroxyphenyl)-1-oxopropan-2-yl)benzamide]	12.5 µg/mL (≈ 31.3 µM)	12.5 µg/mL (≈ 31.3 µM)	0.39 µg/mL (≈ 0.976 µM)	78 µg/mL
Cc1ccc(F)cc1NC(=O)C(Cc1ccccc1)NC(=O)c1cccs1 (stereo not drawn) [IX-79, N-(1-((5-fluoro-2-methylphenyl)amino)-1-oxo-3-phenylpropan-2-yl)thiophene-2-carboxamide]	1.56 µg/mL (≈ 4.08 µM)	1.56 µg/mL (≈ 4.08 µM)	0.19 µg/mL (≈ 0.497 µM)	23 µg/mL
CC1CN(c2ccccc2NC(=O)C(Cc2ccc(O)cc2)NC(=O)c2ccccc2)CC(C)O1 (stereo not drawn) [IX-266, N-(1-((2-(2,6-dimethylmorpholino)phenyl)amino)-3-(4-hydroxy-phenyl)-1-oxopropan-2-yl)benzamide]	6.25 µg/mL (≈ 13.2 µM)	6.25 µg/mL (≈ 13.2 µM)	1.56 µg/mL (≈ 3.29 µM)	71 µg/mL
O=C(NC(Cc1ccccc1)C(=O)Nc1cccc2cnccc12)c1cccs1 (stereo not drawn) [IX-30, N-(1-(isoquinolin-5-ylamino)-1-oxo-3-phenylpropan-2-yl)thiophene-2-carboxamide]	3.12 µg/mL (≈ 7.78 µM)	6.25 µg/mL (≈ 15.6 µM)	0.195 µg/mL (≈ 0.486 µM)	37 µg/mL
Cc1c(NC(=O)C(Cc2ccccc2)NC(=O)c2ccccc2)cccc1OC(C)C (stereo not drawn) [I-51]	> 50 µg/mL	> 50 µg/mL	1.56 µg/mL (≈ 3.75 µM)	>100 µg/mL
COc1ccccc1NC(=O)C(Cc1ccccc1)NC(=O)c1ccccc1Cl (stereo not drawn) [IX-62, 2-chloro-N-(1-((2-methoxyphenyl)amino)-1-oxo-3-phenylpropan-2-yl)benzamide]	6.25 µg/mL (≈ 15.3 µM)	6.25 µg/mL (≈ 15.3 µM)	0.39 µg/mL (≈ 0.954 µM)	12 µg/mL
O=C(NC(Cc1ccccc1)C(=O)Nc1cccc2[nH]ncc12)c1ccccc1F (stereo not drawn) [IX-128, N-(1-((1H-indazol-4-yl)amino)-1-oxo-3-phenylpropan-2-yl)-2-fluorobenzamide]	12.5 µg/mL (≈ 31.1 µM)	25 µg/mL (≈ 62.1 µM)	0.39 µg/mL (≈ 0.969 µM)	58 µg/mL
CC(=O)Oc1ccc(CC(NC(=O)c2ccccc2C)C(=O)Nc2ccccc2N2CCOCC2)cc1 (stereo not drawn) [IX-181, 4-(2-(2-methylbenzamido)-3-((2-morpholinophenyl)amino)-3-oxopropyl)phenyl acetate]	0.78 µg/mL	3.12 µg/mL	0.097 µg/mL	84 µg/mL
COc1ccccc1NC(=O)C(Cc1ccccc1)NC(=O)c1ccccc1C (stereo not drawn) [IX-68, N-(1-((2-methoxyphenyl)amino)-1-oxo-3-phenylpropan-2-yl)-2-methylbenzamide]	3.12 µg/mL (≈ 8.04 µM)	6.25 µg/mL (≈ 16.1 µM)	0.39 µg/mL (≈ 1 µM)	17 µg/mL
O=C(NC(Cc1ccccc1)C(=O)Nc1ccccc1N1CCNCC1)c1ccccc1 (stereo not drawn) [IX-150, N-(1-oxo-3-phenyl-1-((2-(piperazin-1-yl)phenyl)amino)propan-2-yl)-benzamide]	6.25 µg/mL (≈ 14.6 µM)	3.12 µg/mL (≈ 7.29 µM)	0.39 µg/mL (≈ 0.91 µM)	38 µg/mL
O=C(NC(Cc1ccccc1)C(=O)Nc1cccc2cnccc12)c1cccc2[nH]ccc12 (stereo not drawn) [IX-44, N-(1-(isoquinolin-5-ylamino)-1-oxo-3-phenylpropan-2-yl)-1H-indole-4-carboxamide]	1.56 µg/mL (≈ 3.59 µM)	3.12 µg/mL (≈ 7.19 µM)	0.195 µg/mL (≈ 0.449 µM)	70 µg/mL
O=C(NC(Cc1ccccc1)C(=O)Nc1cc(F)ccc1N1CCOCC1)c1ccccc1F (stereo not drawn) [IX-158, 2-fluoro-N-(1-((5-fluoro-2-morpholinophenyl)amino)-1-oxo-3-phenyl-propan-2-yl)benzamide]	0.78 µg/mL (≈ 1.68 µM)	0.78 µg/mL (≈ 1.68 µM)	0.097 µg/mL (≈ 0.208 µM)	>100 µg/mL
